Data as given in ChEMBL document CHEMBL1138486, “Sequence-derived three-dimensional pharmacophore models for G-protein-coupled receptors and their application in virtual screening” (J Med Chem, 2009).

molecular target: T1, Complement component 3a receptor 1, isoform CRA_a (Homo sapiens, UniProt A8K2H7); assay: Agonist activity at human C3AR1 expressed in […] by FLIPR assay; assay type: functional, cell-based
T1 sequence (A8K2H7 whole entry): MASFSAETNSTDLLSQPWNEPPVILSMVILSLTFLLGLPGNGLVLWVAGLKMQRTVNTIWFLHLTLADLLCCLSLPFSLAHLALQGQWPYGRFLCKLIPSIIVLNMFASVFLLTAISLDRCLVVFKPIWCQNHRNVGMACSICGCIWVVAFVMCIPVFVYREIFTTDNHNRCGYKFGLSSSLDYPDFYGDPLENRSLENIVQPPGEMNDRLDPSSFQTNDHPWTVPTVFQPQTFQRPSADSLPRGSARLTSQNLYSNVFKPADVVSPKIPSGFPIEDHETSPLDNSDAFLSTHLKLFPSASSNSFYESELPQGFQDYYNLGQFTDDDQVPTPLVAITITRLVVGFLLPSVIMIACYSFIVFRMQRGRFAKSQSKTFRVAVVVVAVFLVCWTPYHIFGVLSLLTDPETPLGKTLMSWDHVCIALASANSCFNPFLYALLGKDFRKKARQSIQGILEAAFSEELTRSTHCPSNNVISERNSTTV

SMILES | EC50 [nM]
CCCCn1c(Cc2ccccc2)nc2cc(/C(=C/C(=O)O)c3ccccc3)ccc21 | 2.7
CCCCc1nc2cccc(CCCl)c2n1Cc1ccc(-c2ccccc2C(=O)O)cc1 | 310
CCCc1nc(Br)c(S(C)(=O)=O)n1Cc1ccc(-c2ccccc2-c2nn[nH]n2)cc1 | 2
CCCCc1cn(Cc2ccc(-c3ccccc3C(=O)O)cc2)c2cccc(SC)c2c1=O | 530
